Assay results taken from US20260284079A1, “LIPID PRODRUGS OF ALLOPR[…] USES THEREOF” (Seaport Therapeutics, Inc., priority 2023, published 2026).

Assays:
[1] = Safety and tolerability, treatment-emergent adverse events (Example 1); format: in vivo, human; conditions: for Any TEAE, subjects (%): 9 subjects
Description: As used herein, the term “Adverse Event” refers to any event, side-effect, or other untoward medical occurrence in a subject (i.e., a clinical study participant) administered a pharmaceutical product. […] As used herein, a “treatment-emergent adverse event” or “TEAE” refers to an adverse event not present prior to treatment (i.e., receiving a dose of Compound 1) or an already present event that worsens in intensity or frequency following treatment. TEAEs may be classified by system organ class (SOC); an exemplary SOC is Nervous System Disorders. Examples of Nervous System Disorder TEAEs include somnolence, headache, dizziness, lethargy, balance disorder, and cognitive disorder.
A three-part study to assess the safety, tolerability, and PK/PD properties of Compound 1 in humans was performed. Part 1 was a randomized, double-blinded, placebo-controlled, single ascending dose (SAD) phase. Part 2 was a randomized, open-label phase to assess the effect of food on Compound 1. Part 3 was a randomized, double-blinded, placebo-controlled multiple-ascending dose phase.
Part 1 Primary Objectives: to evaluate the safety and tolerability of single oral doses of Compound 1 and to determine the maximum tolerated dose (MTD) following ascending single oral doses of Compound 1. Part 1 Primary Endpoints: incidence, severity, and duration of treatment-emergent adverse events (TEAEs), serious adverse events (SAEs), and incidence of clinically significant vital signs, pulse oximetry, ECGs, safety laboratory, or physical examination findings and MTD of Compound 1 in healthy subjects.
The safety, tolerability, and PK of Compound 1 administered as multiple doses (up to 7 days) was determined. Subjects in cohorts 4-6 were administered Compound 1 once daily in the morning (QAM) in a fed state. Subjects in cohorts 7-8 were administered Compound 1 once daily in the evening (QHS) in a fed state.
Part 3 Primary Objective: to evaluate the safety and tolerability of multiple oral doses of Compound 1 and to determine the maximum tolerated dose of Compound 1 following multiple oral doses. Part 3 Primary Endpoints: incidence, severity, and duration of treatment-emergent adverse events, […], and incidence of clinically significant vital signs, pulse oximetry, ECGs, safety laboratory, or physical examination findings, and the maximum tolerated dose of Compound 1 in healthy subjects.

[2] = Food effect study, PK (Example 1 Part 2)
[3] = Quantitative electroencephalogram (qEEG); format: in vivo, human
Description: Quantitative Electroencephalogram (qEEG or EEG) has gained prominence as a useful biomarker in human drug studies as it is continuous, objective, repeatable, sensitive, reproducible, non-invasive and highly translatable from nonclinical data. EEG serves as biomarker in this protocol and provides PD outcomes for PK-PD modeling, thus enabling a more thorough understanding of the pharmacological effects of Compound 1. In addition, EEG can provide useful safety information regarding detection of epileptiform activity and any pro-convulsive effects of the study drug. Data outputs included spectral analysis and flat brain mapping, among others.
EEG was collected at multiple time points before and after dosing on Day 1 and Day 7 of the MAD portion of the study except for Cohort 8. For a given recording, the subject was fitted with a cap containing the electrodes. For each session, recordings were collected for approximately 15 minutes while subjects are sitting quietly, and include portions with eyes open and eyes closed.
The qEEG is a quantitative measurement of brain oscillations considering different frequency levels. Resting-state brain activity was recorded in 2 conditions (eyes closed and eyes open). For each electrode, a spectral analysis of the EEG signal was carried out to derive absolute and relative powers in standard frequency bands. […]

## CCCCCCCC(=O)OCC(COC(=O)CCCCCCC)OC(=O)CC(C)CC(=O)OCOC(=O)O[C@@H]1CC[C@@]2(C)[C@@H](CC[C@@H]3[C@@H]2CC[C@]2(C)[C@@H](C(C)=O)CC[C@@H]32)C1 (stereo partly shown) [Compound 1]
[1]; Example 1, Parts 1-3
  tolerability across dose levels tested: generally well tolerated
[1]; MAD Cohort 4, 250 mg QAM
  TEAE Abnormal Dreams (Psychiatric Disorders), subjects (%): 0
  TEAE Balance Disorder (Nervous System Disorders), subjects (%): 0
  TEAE Cognitive Disorder (Nervous System Disorders), subjects (%): 0
  TEAE Diarrhoea (Gastrointestinal Disorders), subjects (%): 0
  TEAE Disturbance in attention (Nervous System Disorders), subjects (%): 0
  TEAE Dizziness (Nervous System Disorders), subjects (%): 0
  TEAE Euphoric Mood (Psychiatric Disorders), subjects (%): 0
  TEAE Fatigue (General Disorders and Administration Site Conditions), subjects (%): 0
  TEAE Hallucination, Visual (Psychiatric Disorders), subjects (%): 0
  TEAE Headache (Nervous System Disorders), subjects (%): 0
  TEAE Lethargy (Nervous System Disorders), subjects (%): 0
  TEAE Rhinorrhoea (Respiratory, Thoracic, and Mediastinal Disorders), subjects (%): 0
  TEAE Sedation (Nervous System Disorders), subjects (%): 0
  TEAE Somnolence (Nervous System Disorders), subjects (%): 7 (77.8%)
  Any TEAE, subjects (%): 7 (77.8%)
[1]; MAD Cohort 5, 375 mg QAM
  TEAE Abnormal Dreams (Psychiatric Disorders), subjects (%): 1 (11.1%)
  TEAE Balance Disorder (Nervous System Disorders), subjects (%): 0
  TEAE Cognitive Disorder (Nervous System Disorders), subjects (%): 1 (11.1%)
  TEAE Diarrhoea (Gastrointestinal Disorders), subjects (%): 0
  TEAE Disturbance in attention (Nervous System Disorders), subjects (%): 0
  TEAE Dizziness (Nervous System Disorders), subjects (%): 0
  TEAE Euphoric Mood (Psychiatric Disorders), subjects (%): 0
  TEAE Fatigue (General Disorders and Administration Site Conditions), subjects (%): 0
  TEAE Hallucination, Visual (Psychiatric Disorders), subjects (%): 0
  TEAE Headache (Nervous System Disorders), subjects (%): 0
  TEAE Lethargy (Nervous System Disorders), subjects (%): 0
  TEAE Rhinorrhoea (Respiratory, Thoracic, and Mediastinal Disorders), subjects (%): 0
  TEAE Sedation (Nervous System Disorders), subjects (%): 0
  TEAE Somnolence (Nervous System Disorders), subjects (%): 6 (66.7%)
  Any TEAE, subjects (%): 6 (66.7%)
[1]; MAD Cohort 6, 500 mg QAM
  TEAE Abnormal Dreams (Psychiatric Disorders), subjects (%): 0
  TEAE Balance Disorder (Nervous System Disorders), subjects (%): 7 (77.8%)
  TEAE Cognitive Disorder (Nervous System Disorders), subjects (%): 4 (44.4%)
  TEAE Diarrhoea (Gastrointestinal Disorders), subjects (%): 0
  TEAE Disturbance in attention (Nervous System Disorders), subjects (%): 1 (11.1%)
  TEAE Dizziness (Nervous System Disorders), subjects (%): 1 (11.1%)
  TEAE Euphoric Mood (Psychiatric Disorders), subjects (%): 1 (11.1%)
  TEAE Fatigue (General Disorders and Administration Site Conditions), subjects (%): 0
  TEAE Hallucination, Visual (Psychiatric Disorders), subjects (%): 1 (11.1%)
  TEAE Headache (Nervous System Disorders), subjects (%): 0
  TEAE Lethargy (Nervous System Disorders), subjects (%): 1 (11.1%)
  TEAE Rhinorrhoea (Respiratory, Thoracic, and Mediastinal Disorders), subjects (%): 0
  TEAE Sedation (Nervous System Disorders), subjects (%): 0
  TEAE Somnolence (Nervous System Disorders), subjects (%): 9 (100%)
  Any TEAE, subjects (%): 9 (100%)
[1]; MAD Cohort 7, 375 mg QHS
  TEAE Abnormal Dreams (Psychiatric Disorders), subjects (%): 0
  TEAE Balance Disorder (Nervous System Disorders), subjects (%): 2
  TEAE Cognitive Disorder (Nervous System Disorders), subjects (%): 2 (22.2%)
  TEAE Diarrhoea (Gastrointestinal Disorders), subjects (%): 1 (11.1%)
  TEAE Disturbance in attention (Nervous System Disorders), subjects (%): 1 (11.1%)
  TEAE Dizziness (Nervous System Disorders), subjects (%): 1 (11.1%)
  TEAE Euphoric Mood (Psychiatric Disorders), subjects (%): 1 (11.1%)
  TEAE Fatigue (General Disorders and Administration Site Conditions), subjects (%): 0
  TEAE Hallucination, Visual (Psychiatric Disorders), subjects (%): 0
  TEAE Headache (Nervous System Disorders), subjects (%): 1 (11.1%)
  TEAE Lethargy (Nervous System Disorders), subjects (%): 0
  TEAE Rhinorrhoea (Respiratory, Thoracic, and Mediastinal Disorders), subjects (%): 0
  TEAE Sedation (Nervous System Disorders), subjects (%): 0
  TEAE Somnolence (Nervous System Disorders), subjects (%): 5 (55.6%)
  Any TEAE, subjects (%): 6 (66.7%)
[1]; MAD Cohort 8, 375 mg QHS
  TEAE Abnormal Dreams (Psychiatric Disorders), subjects (%): 0
  TEAE Balance Disorder (Nervous System Disorders), subjects (%): 0
  TEAE Cognitive Disorder (Nervous System Disorders), subjects (%): 0
  TEAE Diarrhoea (Gastrointestinal Disorders), subjects (%): 0
  TEAE Disturbance in attention (Nervous System Disorders), subjects (%): 0
  TEAE Dizziness (Nervous System Disorders), subjects (%): 0
  TEAE Euphoric Mood (Psychiatric Disorders), subjects (%): 0
  TEAE Fatigue (General Disorders and Administration Site Conditions), subjects (%): 0
  TEAE Hallucination, Visual (Psychiatric Disorders), subjects (%): 0
  TEAE Headache (Nervous System Disorders), subjects (%): 0
  TEAE Lethargy (Nervous System Disorders), subjects (%): 0
  TEAE Rhinorrhoea (Respiratory, Thoracic, and Mediastinal Disorders), subjects (%): 0
  TEAE Sedation (Nervous System Disorders), subjects (%): 1 (11.1%)
  TEAE Somnolence (Nervous System Disorders), subjects (%): 1 (11.1%)
  Any TEAE, subjects (%): 2 (22.2%)
[1]; Part 2, 140 mg
  effect of food on safety or tolerability: Food did not impact safety or tolerability
[1]; most frequently at doses greater than or equal to 500 mg
  most common adverse event: somnolence
[2]; 140 mg food effect study
  maximal concentrations and exposure values, combined allopregnanolone compared to allopregnanolone: approximately 15 times higher
[2]; allopregnanolone and combined allopregnanolone, 140 mg
  increase of AUC0-t, AUC0-inf and Cmax in fed (LF) group compared to fasted and fed (HF) groups: 1.3 to 1.5 fold
[3]; cohorts 4 (250 mg), 5 (375 mg), 6 (500 mg)
  qEEG power for the β-band (β1, β2, β3): dose-dependent increase in power
[3]; day 1 and day 7
  time of maximum qEEG effects following administration: approximately 4 hours
